Results reported in patent US9499550B2 (BRISTOL-MYERS SQUIBB COMPANY, priority 2012, dated 2016).

Assays:
[1] = test system: HCV genotype 1a (H77 strain) replicon in HUH-7 cells; assay: HCV replicon luciferase reporter assay, genotype 1a; format: cell-based; settings: Hepatitis C virus, Huh-7, 72 h, HCV genotype 1a replicon luciferase, 3 days incubation, read-out: LE_1a (EC50, range)
Summary of the method: (§1)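 Replicon inhibition for both genotypes was measured as Renilla luciferase signal (EnduRen, 7.5 μM final, 2 h) after 3-day, 37° C exposure of replicon-bearing HUH-7 cells in 4% FCS DMEM, 0.5% DMSO. The 1b construct carries S1179I; the 1a H77 construct carries P1496L and S2204I. Twenty-point, 3-fold dilutions were fitted four-parametrically for EC50, and CC50 was taken from multiplexed Cell Titer-Blue.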

[2] = test system: HCV genotype 1b (Con1) replicon in HUH-7 cells; assay: HCV replicon luciferase reporter assay, genotype 1b; format: cell-based; settings: Hepatitis C virus, Huh-7, 72 h, HCV genotype 1b replicon luciferase, 3 days incubation, read-out: LE_1b (EC50, range)
Summary of the method: as §1

Row | Compound | EC50 [1] [nM] | EC50 [2] [nM]
1 | CC[C@@H]1C[C@H](C)CC/C=C\[C@@H]2C[C@@]2(C(=O)NS(=O)(=O)C2(C)CC2)NC(=O)[C@@H]2C[C@@H](Oc3ncc(N4CCOCC4)c4ccccc34)CN2C(=O)[C@H]1NC(=O)OC(C)(C)C(F)(F)F [Compound 5419, 1,1,1-trifluoro-2-methylpropan-2-yl((2R,6S,7R,9R,13aS,14aR,16aS,Z)-7-ethyl-9-methyl-14a-(((1-methylcyclopropyl)sulfonyl)carbamoyl)-2-((4-morpholinoisoquinolin-1-yl)oxy)-5,16-dioxo-1,2,3,5,6,7,8,9,10,11,13a,14,14a,15,16,16a-hexadecahydrocyclopropa[e]pyrrolo[1,2-a][1,4]diazacyclopentadecin-6-yl)carbamate] | 1.01 to 5 | 0.51 to 1
2 | C[C@@H]1CC/C=C\[C@@H]2C[C@@]2(C(=O)NS(=O)(=O)C2(C)CC2)NC(=O)[C@@H]2C[C@@H](Oc3ncc(N4CCOCC4)c4ccccc34)CN2C(=O)[C@@H](NC(=O)OC(C)(C)C)[C@H](C)C1 [Compound 5421, tert-butyl ((2R,6S,7R,9R,13aS,14aR,16aS,Z)-7,9-dimethyl-14a-(((1-methylcyclopropyl)sulfonyl)carbamoyl)-2-((4-morpholinoisoquinolin-1-yl)oxy)-5,16-dioxo-1,2,3,5,6,7,8,9,10,11,13a,14,14a,15,16,16a-hexadecahydrocyclopropa[e]pyrrolo[1,2-a][1,4]diazacyclopentadecin-6-yl)carbamate] | 1.01 to 5 | 0.51 to 1
3 | C[C@@H]1CC/C=C\[C@@H]2C[C@@]2(C(=O)NS(=O)(=O)C2(C)CC2)NC(=O)[C@@H]2C[C@@H](Oc3ncc(N4CCOCC4)c4ccccc34)CN2C(=O)[C@@H](NC(=O)OC(C)(C)C(F)(F)F)[C@H](C)C1 [Compound 5423, 1,1,1-trifluoro-2-methylpropan-2-yl((2R,6S,7R,9R,13aS,14aR,16aS,Z)-7,9-dimethyl-14a-(((1-methylcyclopropyl)sulfonyl)carbamoyl)-2-((4-morpholinoisoquinolin-1-yl)oxy)-5,16-dioxo-1,2,3,5,6,7,8,9,10,11,13a,14,14a,15,16,16a-hexadecahydrocyclopropa[e]pyrrolo[1,2-a][1,4]diazacyclopentadecin-6-yl)carbamate] | 1.01 to 5 | 0.51 to 1
4 | CC[C@@H]1C[C@H](C)CC/C=C\[C@@H]2C[C@@]2(C(=O)NS(=O)(=O)C2(CF)CC2)NC(=O)[C@@H]2C[C@@H](Oc3nccc4c5c(ccc34)OCCO5)CN2C(=O)[C@H]1NC(=O)OC(C)(C)C [Compound 5425, tert-butyl ((2R,6S,7R,9R,13aS,14aR,16aS,Z)-2-((2,3-dihydro-[1,4]dioxino[2,3-f]isoquinolin-7-yl)oxy)-7-ethyl-14a-(((1-(fluoromethyl)cyclopropyl)sulfonyl)carbamoyl)-9-methyl-5,16-dioxo-1,2,3,5,6,7,8,9,10,11,13a,14,14a,15,16,16a-hexadecahydrocyclopropa[e]pyrrolo[1,2-a][1,4]diazacyclopentadecin-6-yl)carbamate] | 1.01 to 5 | 1.01 to 5
5 | CC[C@@H]1C[C@H](C)CC/C=C\[C@@H]2C[C@@]2(C(=O)NS(=O)(=O)C2(CF)CC2)NC(=O)[C@@H]2C[C@@H](Oc3nccc4c5c(ccc34)OCCO5)CN2C(=O)[C@H]1NC(=O)OC(C)(C)C(F)(F)F [Compound 5427, 1,1,1-trifluoro-2-methylpropan-2-yl((2R,6S,7R,9R,13aS,14aR,16aS,Z)-2-((2,3-dihydro-[1,4]dioxino[2,3-f]isoquinolin-7-yl)oxy)-7-ethyl-14a-(((1-(fluoromethyl)cyclopropyl)sulfonyl)carbamoyl)-9-methyl-5,16-dioxo-1,2,3,5,6,7,8,9,10,11,13a,14,14a,15,16,16a-hexadecahydrocyclopropa[e]pyrrolo[1,2-a][1,4]diazacyclopentadecin-6-yl)carbamate] | 5.01 to 35 | 5.01 to 35
6 | [2H]C([2H])([2H])C(OC(=O)N[C@@H]1C(=O)N2C[C@H](Oc3nccc4cc(OC)c(F)cc34)C[C@H]2C(=O)N[C@]2(C(=O)NS(=O)(=O)C3(C)CC3)C[C@H]2/C=C\CC[C@@H](C)C[C@H]1CC)(C([2H])([2H])[2H])C(F)(F)F [Compound 5429] | 1.01 to 5 | 1.01 to 5
7 | [2H]C([2H])([2H])C(OC(=O)N[C@@H]1C(=O)N2C[C@H](Oc3ncc(OC)c4ccccc34)C[C@H]2C(=O)N[C@]2(C(=O)NS(=O)(=O)C3(C)CC3)C[C@H]2/C=C\CC[C@@H](C)C[C@H]1CC)(C([2H])([2H])[2H])C(F)(F)F [Compound 5431] | 1.01 to 5 | 1.01 to 5
8 | [2H]C([2H])([2H])C(OC(=O)N[C@@H]1C(=O)N2C[C@H](Oc3ncc(OC)c4ccccc34)C[C@H]2C(=O)N[C@]2(C(=O)NS(=O)(=O)C3CC3)C[C@H]2/C=C\CC[C@@H](C)C[C@H]1CC)(C([2H])([2H])[2H])C(F)(F)F [Compound 5433] | 0.51 to 1 | 0.1 to 0.5
9 | CC[C@@H]1C[C@@H](C)CC/C=C\[C@@H]2C[C@@]2(C(=O)NS(=O)(=O)C2(C)CC2)NC(=O)[C@@H]2C[C@@H](Oc3nccc4cc(OC)c(F)cc34)CN2C(=O)[C@H]1NC(=O)OC(C)(C)C(C)(F)F [Compound 5434, 3,3-difluoro-2-methylbutan-2-yl((2R,6S,7R,9S,13aS,14aR,16aS,Z)-7-ethyl-2-((7-fluoro-6-methoxyisoquinolin-1-yl)oxy)-9-methyl-14a-(((1-methylcyclopropyl)sulfonyl)carbamoyl)-5,16-dioxo-1,2,3,5,6,7,8,9,10,11,13a,14,14a,15,16,16a-hexadecahydrocyclopropa[e]pyrrolo[1,2-a][1,4]diazacyclopentadecin-6-yl)carbamate] | 1.01 to 5 | 1.01 to 5
10 | CC[C@@H]1C[C@H](C)CC/C=C\[C@@H]2C[C@@]2(C(=O)NS(=O)(=O)C2(C)CC2)NC(=O)[C@@H]2C[C@@H](Oc3nccc4cc(OC)c(F)cc34)CN2C(=O)[C@H]1NC(=O)OC(C)(C)C(C)(F)F [Compound 5435, 3,3-difluoro-2-methylbutan-2-yl((2R,6S,7R,9R,13aS,14aR,16aS,Z)-7-ethyl-2-((7-fluoro-6-methoxyisoquinolin-1-yl)oxy)-9-methyl-14a-(((1-methylcyclopropyl)sulfonyl)carbamoyl)-5,16-dioxo-1,2,3,5,6,7,8,9,10,11,13a,14,14a,15,16,16a-hexadecahydrocyclopropa[e]pyrrolo[1,2-a][1,4]diazacyclopentadecin-6-yl)carbamate] | 1.01 to 5 | 1.01 to 5
11 | CC[C@@H]1C[C@H](C)CC/C=C\[C@@H]2C[C@@]2(C(=O)NS(=O)(=O)C2(C)CC2)NC(=O)[C@@H]2C[C@@H](Oc3ncc(OC)c4ccccc34)CN2C(=O)[C@H]1NC(=O)OC(C)(C)C(C)(F)F [Compound 5437, 3,3-difluoro-2-methylbutan-2-yl((2R,6S,7R,9R,13aS,14aR,16aS,Z)-7-ethyl-2-((4-methoxyisoquinolin-1-yl)oxy)-9-methyl-14a-(((1-methylcyclopropyl)sulfonyl)carbamoyl)-5,16-dioxo-1,2,3,5,6,7,8,9,10,11,13a,14,14a,15,16,16a-hexadecahydrocyclopropa[e]pyrrolo[1,2-a][1,4]diazacyclopentadecin-6-yl)carbamate] | 1.01 to 5 | 0.1 to 0.5
12 | CC[C@@H]1C[C@H](C)CC/C=C\[C@@H]2C[C@@]2(C(=O)NS(=O)(=O)C2CC2)NC(=O)[C@@H]2C[C@@H](Oc3ncc(OC)c4ccccc34)CN2C(=O)[C@H]1NC(=O)OC(C)(C)C(C)(F)F [Compound 5439, 3,3-difluoro-2-methylbutan-2-yl((2R,6S,7R,9R,13aS,14aR,16aS,Z)-14a-((cyclopropylsulfonyl)carbamoyl)-7-ethyl-2-((4-methoxyisoquinolin-1-yl)oxy)-9-methyl-5,16-dioxo-1,2,3,5,6,7,8,9,10,11,13a,14,14a,15,16,16a-hexadecahydrocyclopropa[e]pyrrolo[1,2-a][1,4]diazacyclopentadecin-6-yl)carbamate] | 0.51 to 1 | 0.1 to 0.5
13 | CC[C@@H]1C[C@H](C)CC/C=C\[C@@H]2C[C@@]2(C(=O)NS(=O)(=O)C2(CF)CC2)NC(=O)[C@@H]2C[C@@H](Oc3ncc(N4CCOCC4)c4ccccc34)CN2C(=O)[C@H]1NC(=O)OC(C)(C)C [Compound 5441, tert-butyl ((2R,6S,7R,9R,13aS,14aR,16aS,Z)-7-ethyl-14a-(((1-(fluoromethyl)cyclopropyl)sulfonyl)carbamoyl)-9-methyl-2-((4-morpholinoisoquinolin-1-yl)oxy)-5,16-dioxo-1,2,3,5,6,7,8,9,10,11,13a,14,14a,15,16,16a-hexadecahydrocyclopropa[e]pyrrolo[1,2-a][1,4]diazacyclopentadecin-6-yl)carbamate] | 1.01 to 5 | 1.01 to 5
14 | C[C@@H]1CC/C=C\[C@@H]2C[C@@]2(C(=O)NS(=O)(=O)C2(CF)CC2)NC(=O)[C@@H]2C[C@@H](Oc3ncc(N4CCOCC4)c4ccccc34)CN2C(=O)[C@@H](NC(=O)OC(C)(C)C)[C@H](C)C1 [Compound 5443, tert-butyl ((2R,6S,7R,9R,13aS,14aR,16aS,Z)-14a-(((1-(fluoromethyl)cyclopropyl)sulfonyl)carbamoyl)-7,9-dimethyl-2-((4-morpholinoisoquinolin-1-yl)oxy)-5,16-dioxo-1,2,3,5,6,7,8,9,10,11,13a,14,14a,15,16,16a-hexadecahydrocyclopropa[e]pyrrolo[1,2-a][1,4]diazacyclopentadecin-6-yl)carbamate] | 1.01 to 5 | 0.51 to 1
